The values that follow are results of earlier work, collected in US10206884B2, “Microcapsules with polymeric coating comprising a lipid and an active agent” (FRESENIUS KABI DEUTSCHLAND GMBH, priority 2013, dated 2019).

As to `CCCC(=O)OCC(COC(=O)CCC)OC(=O)CCC` [tributyrin, 1,3-di(butanoyloxy)propan-2-yl butanoate], the solubility in water entry is given as “only poorly soluble in water”.
